Test results from patent US20260015662A1, “DETECTING ANTIBIOTIC AND/OR CHEMICAL USE IN ANIMALS USING EPIGENETIC MEANS” (Evonik Operations GmbH, priority 2022, published 2026).
Where a name gives a salt, the structure may show the parent alone.

How the values were obtained:
[1] = cited from earlier work; for Absorption: absorption level of the antibiotic
[2] = test system: IPEC2 cells (swine intestinal cell line IPEC2-J2); test: Methylated DNA quantification in swine intestinal cell line treated with antibiotics; format: cell-based; conditions: for average amount of methylated DNA: Tet 200 mg/L, Amx 100 mg/L, Col 480 mg/L, ± SEM; for size of the reduction in overall DNA methylation (rank among the three antibiotics): within 24 hrs of treatment, compared with antibiotic free control cells
Experimental: An in vitro to investigate the effects of three different antibiotics on the DNA methylation quantity in a swine intestinal cell line.
An immortalised cell line from swine intestines (IPEC2-J2 ACC 701 from DSMZ cell culture) was utilized in the 7th passage. In a 12 well, flat-bottom plate, 1×10^4 cel|s/well were seeded with DPBS D8537 (Sigma-Aldrich) and initially incubated for 4 days. After incubation cells were treated with one of 4 treatments for up to an additional 4 days: • 1) Incubation for 4 days without any antibiotics • 2) Incubation for 1 day with antibiotics followed by incubation for 1-3 days in antibiotic free media • 3) Incubation for 2 days with antibiotics followed by incubation for 1-2 days in antibiotic free media • 4) Incubation for 3 days with antibiotics followed by incubation for 1 day in antibiotic free media
Treatments 2, 3 and 4 were repeated with 3 different antibiotic treatments; tetracycline hydrochloride at 200 mg/L, Amoxicillin at 100 mg/L and Colistin at 480 mg/L. Duplicate cells per treatment were harvested at each time point. Media was removed, cells were washed once with DPBS, and a cell scraper was used to disassociate the cells from the bottom of the well. Cell pellets were then stored at −80° C. until DNA could be isolated using the NuceloSpin® DNA Stool Kit (Macherey and Nagel). Methylation grade of 100ng of isolated DNA was determined using the Imprint® Methylated DNA Quantification Kit (Sigma-Aldrich) which compared samples to a standard curve of known methylated DNA.

[3] = 1 day with antibiotic before washing, harvested Day 1
[4] = 1 day with antibiotic before washing, harvested Day 2
[5] = 1 day with antibiotic before washing, harvested Day 3
[6] = 1 day with antibiotic before washing, harvested Day 4
[7] = 2 days with antibiotic before washing, harvested Day 2
[8] = 2 days with antibiotic before washing, harvested Day 3
[9] = 2 days with antibiotic before washing, harvested Day 4
[10] = 3 days with antibiotic before washing, harvested Day 3
[11] = 3 days with antibiotic before washing, harvested Day 4

Row | Molecule | Absorption [1] | Recommended Withdrawal for Broilers [1] | average amount of methylated DNA [2, 3] [ng/100 ng isolated DNA] | average amount of methylated DNA [2, 4] [ng/100 ng isolated DNA] | average amount of methylated DNA [2, 5] [ng/100 ng isolated DNA] | average amount of methylated DNA [2, 6] [ng/100 ng isolated DNA] | average amount of methylated DNA [2, 7] [ng/100 ng isolated DNA] | average amount of methylated DNA [2, 8] [ng/100 ng isolated DNA] | average amount of methylated DNA [2, 9] [ng/100 ng isolated DNA] | average amount of methylated DNA [2, 10] [ng/100 ng isolated DNA] | average amount of methylated DNA [2, 11] | size of the reduction in overall DNA methylation (rank among the three antibiotics) [2]
1 | CC1(C)S[C@@H]2[C@H](NC(=O)[C@H](N)c3ccc(O)cc3)C(=O)N2[C@H]1C(=O)O [Amoxicillin] | Systemic | 1 to 4 days | 4.1 ± 8.9 | 12.3 ± 3.2 | 20.4 ± 8.3 | 19.0 ± 2.1 | 20.9 ± 10.4 | 9.8 ± 4.7 | 21.3 ± 3.4 | 26.0 ± 10.2 | 10.2 ± 9.4 ng/100 ng isolated DNA | –
2 | CN(C)[C@@H]1C(O)=C(C(N)=O)C(=O)[C@@]2(O)C(O)=C3C(=O)c4c(O)cccc4[C@@](C)(O)[C@H]3C[C@@H]12 [Tet, tetracycline hydrochloride] | – | – | −5.6 ± 2.9 | 12.0 ± 6.9 | 18.2 ± 16.0 | 25.8 ± 22.4 | 0.1 ± 8.1 | −8.6 ± 11.1 | 7.4 ± 9.7 | 6.0 ± 13.2 | 21.7^3 ng/100 ng isolated DNA | largest
3 | CC[C@H]1OC(=O)C[C@@H](O)[C@H](C)[C@@H](O[C@@H]2O[C@H](C)[C@@H](O[C@H]3C[C@@](C)(O)[C@@H](O)[C@H](C)O3)[C@H](N(C)C)[C@H]2O)[C@@H](CC=O)C[C@@H](C)C(=O)/C=C/C(C)=C/[C@@H]1CO[C@@H]1O[C@H](C)[C@@H](O)[C@@H](OC)[C@H]1OC [Tylosin] | Systemic | 5 days | – | – | – | – | – | – | – | – | – | –
4 | Bacitracin Methylene Disalicylate [BMD] | Local | None required | – | – | – | – | – | – | – | – | – | –
5 | Colistin | – | – | 26.1 ± 5.0 | 11.7 ± 6.8 | 19.6 ± 5.5 | 24.9 ± 0.8 | 29.5 ± 3.8 | 1.4 ± 7.9 | 19.0 ± 5.4 | 29.1 ± 18.0 | 28.5 ± 16.4 ng/100 ng isolated DNA | finally
